From patent publication US10683307B2, “Compounds for use in antibacterial applications” (GLAXOSMITHKLINE INTELLECTUAL PROPERTY DEVELOPMENT LIMITED, priority 2015, dated 2020)
Structures can show the parent of a compound that is named as a salt. Where two headings read alike, the source gives them in different places.

Columns and labels:
Assay type in all cases: cell-based
[1] = test system: Bacillus anthracis; assay: microbe, parasite or virus in culture
[2] = test system: Yersinia pestis; assay: microbe, parasite or virus in culture
[3] = test system: Streptococcus pneumonia; details: Streptococcus pneumoniae
[4] = test system: Staphylococcus aureus
[5] = test system: Streptococcus pyogenes
[6] = test system: Francisella tularensis; assay: microbe, parasite or virus in culture
[7] = test system: Burkholderia cepacia; set-up: unit not given beside the values; details: unit not given
[8] = test system: Mycobacterium tuberculosis H37Rv; assay: Mycobacterium Tuberculosis H37Rv Inhibition Assay; details: H37Rv strain, Middlebrook 7H9+ADC, resazurin fluorescence; for MIC: H37RV
[9] = test system: Burkholderia mallei; details: Table 3 column D4 = Burkholderia mallei
[10] = test system: Serratia marcescens; details: Table 1 column N = Serratia marcescens; unit inferred
[11] = test system: Bacteroides caccae
[12] = test system: Bacteroides ovatus
[13] = test system: Streptococcus agalactiae
[14] = test system: Burkholderia pseudomallei; details: Table 3 column E4 = Burkholderia pseudomallei
[15] = test system: Bacteroides thetaiotamicron
[16] = test system: citrobacter spp; details: Table 1 column L = citrobacter spp; unit inferred
[17] = test system: Bacteroides fragilis
[18] = test system: Providencia rettgeri; details: Table 1 column O = Providencia rettgeri; unit inferred
[19] = test system: E. faecium; details: G1 = E. faecium
[20] = test system: Moraxella catarrhalis; details: unit inferred
[21] = test system: Enterococcus faecalis
[22] = test system: Legionella pneumophila; details: Table 1 column G = Legionella pneumophila; unit inferred

## COc1cnc2ccc(F)c(CN[C@H]3CC[C@H](NCc4cnc5c(n4)NC(=O)CO5)C[C@H]3O)c2n1.Cl [Compound W, 6-({[(1S,3R,4S)-4-{[(6-fluoro-3-methoxyquinoxalin-5-yl)methyl]amino}-3-hydroxycyclohexyl]amino}methyl)-2H,3H,4H-pyrazino[2,3-b][1,4]oxazin-3-one]
[1]; Bacillus anthracis
  MIC90: ≤ 0.5 µg/mL
[2]; Yersinia pestis
  MIC90: ≤ 0.125 µg/mL
[3]
  MIC90: ≤ 0.5 µg/mL
[4]
  MIC90: ≤ 0.125 µg/mL
[5]
  MIC90: ≤ 0.125 µg/mL
[6]; Francisella tularensis
  MIC90: ≤ 0.125 µg/mL
[7]
  MIC90: ≤16

## COc1cnc2ccc(F)c(CN[C@H]3CC[C@H](NCc4cnc5c(n4)NC(=O)CO5)C[C@H]3O)c2n1.Cl [Compound W, HCl salt, 6-(((1S,3R,4S)-4-((7-Fluoro-2-methoxyquinoxalin-8-yl)methylamino)-3-hydroxycyclohexylamino)methyl)-2H-pyrazino[2,3-b][1,4]oxazin-3(4H)-one Hydrochloride]
[8]
  MIC: ≤ 0.02 µg/mL

## COc1ccc2ccc(=O)n(CCN3C[C@H](CNCc4cnc5c(n4)NC(=O)CS5)[C@H](O)C3)c2n1 [Compound Y, HCl salt, 1-{2-[(3S,4S)-3-hydroxy-4-{[({3-oxo-2H,3H,4H-pyrazino[2,3-b][1,4]thiazin-6-yl}methyl)amino]methyl}pyrrolidin-1-yl]ethyl}-7-methoxy-1,2-dihydro-1,8-naphthyridin-2-one]
[8]
  MIC: ≤ 0.02 µg/mL

## Cn1cc(C(=O)O)c(=O)c2c(CC[C@H]3CC[C@H](NCc4cnc5c(n4)NC(=O)CS5)CC3)c(F)cc(F)c21 [Compound Z, TFA salt, 6,8-difluoro-1-methyl-4-oxo-5-(2-((1r,4s)-4-(((3-oxo-3,4-dihydro-2H-pyrazino [2,3-b][1,4]thiazin-6-yl)methyl)amino)cyclohexyl)ethyl)-1,4-dihydroquinoline-3-carboxylic acid]
[8]
  MIC: ≤ 0.1 µg/mL

## COc1cnc2ccc(F)c(CNC3CCC(NCc4cnc5c(n4)NC(=O)CO5)CC3)c2n1.Cl [Formula (V) HCl salt, 6-((((1R,4R)-4-(((6-fluoro-3-methoxyquinoxalin-5-yl)methyl)amino)cyclohexyl)amino)methyl)-2H-pyrazino[2,3-b][1,4]oxazin-3(4H)-one, Hydrochloride]
[9]
  MIC90: ≤4 µg/mL
[10]
  MIC90: ≤ 4 µg/mL
[11]
  MIC: ≤4 µg/mL
[12]
  MIC: ≤2 µg/mL
[1]; Table 3 column B4 = Bacillus anthracis
  MIC90: ≤0.25 µg/mL
[13]
  MIC90: ≤2 µg/mL
[2]; Table 3 column A4 = Yersinia pestis
  MIC90: ≤0.12 µg/mL
[14]
  MIC90: ≤4 µg/mL
[15]
  MIC: ≤1 µg/mL
[16]
  MIC90: ≤ 0.25 µg/mL
[8]
  H37Rv MIC: ≤0.3 µg/mL
[17]
  MIC: ≤0.5 µg/mL
[6]; Table 3 column C4 = Francisella tularensis
  MIC90: ≤0.5 µg/mL
[7]
  MIC90: ≤8
[18]
  MIC90: ≤ 0.5 µg/mL

## COc1cnc2ccc(F)c(CN[C@H]3CC[C@H](NCc4cnc5c(n4)NC(=O)CO5)CC3)c2n1 [Formula (V) free base, 6-((((1R,4R)-4-(((6-fluoro-3-methoxyquinoxalin-5-yl)methyl)amino)cyclohexyl)amino)methyl)-2H-pyrazino[2,3-b][1,4]oxazin-3(4H)-one]
[19]; Enterococcus faecium, read-out: MIC90
  MIC90: ≤ 0.5 µg/mL
[20]
  MIC90: < 0.016 µg/mL
[8]
  MIC: ≤ 0.02 µg/mL
[21]; read-out: MIC90
  MIC90: ≤ 0.5 µg/mL

## COc1cnc2ccc(F)c(CN[C@@H]3CC[C@@H](NCc4cnc5c(n4)NC(=O)CO5)C[C@@H]3O)c2n1.Cl [Formula (VI) HCl salt, 6-((((1R,3S,4R)-4-(((6-fluoro-3-methoxyquinoxalin-5-yl)methyl)amino)-3-hydroxycyclohexyl)amino)methyl)-2H-pyrazino[2,3-b][1,4]oxazin-3(4H)-one Hydrochloride]
[1]; Bacillus anthracis
  MIC90: ≤ 0.25 µg/mL
[2]; Yersinia pestis
  MIC90: ≤ 0.125 µg/mL
[3]
  MIC90: ≤ 0.25 µg/mL
[4]
  MIC90: ≤ 0.125 µg/mL
[8]
  MIC: ≤ 0.02 µg/mL
[5]
  MIC90: ≤ 0.063 µg/mL
[6]; Francisella tularensis
  MIC90: ≤ 0.063 µg/mL
[7]
  MIC90: ≤8

## COc1ccc2ncc(=O)n(CCN3CC[C@@H](CNCc4ncc5c(n4)NC(=O)CO5)C3)c2n1 [Formula (VII) HCl salt, 2-({[((3S)-1-{2-[6-(methyloxy)-3-oxopyrido[2,3-b]pyrazin-4(3H)-yl]ethyl}-3-pyrrolidinyl)methyl]amino}methyl)-1H-pyrimido[5,4-b][1,4]oxazin-7(6H)-one]
[10]
  MIC90: ≤ 2 µg/mL
[1]; Bacillus anthracis
  MIC90: ≤ 0.12 µg/mL
[2]; Yersinia pestis
  MIC90: ≤ 0.12 µg/mL
[22]
  MIC90: ≤ 0.06 µg/mL
[19]
  MIC90: ≤0.5 µg/mL
[20]
  MIC90: < 0.016 µg/mL
[16]
  MIC90: ≤ 0.5 µg/mL
[8]
  MIC: ≤ 0.3 µg/mL
[21]; read-out: MIC90
  MIC90: ≤ 0.5 µg/mL
[6]; Francisella tularensis
  MIC90: ≤ 0.03 µg/mL
[7]
  MIC90: ≤16
[18]
  MIC90: ≤ 1 µg/mL

## COc1ccc2ncc(=O)n(CCN3CC[C@@H](CNCc4ncc5c(n4)NC(=O)CO5)C3)c2n1 [Formula (VII) free base, 2-({[((3S)-1-{2-[6-(methyloxy)-3-oxopyrido[2,3-b]pyrazin-4(3H)-yl]ethyl}-3-pyrrolidinyl)methyl]amino}methyl)-1H-pyrimido[5,4-b][1,4]oxazin-7(6H)-one]
[19]
  MIC90: ≤0.125 µg/mL
[20]
  MIC90: < 0.016 µg/mL
[8]
  H37Rv MIC: ≤0.16 µg/mL
[21]
  MIC90: ≤0.25 µg/mL
[7]
  MIC90: ≤8
